From US20120157519A1 (priority 2009, published 2012)

What was measured:
H1N1 influenza virus = system: H1N1 influenza virus; set-up: species or system BALB/c mice; settings: mouse, in vivo
[1] = system: phosphorylated Akt (PI3k-Akt signaling); type: cell-based, canine
721.221 target cells = type: cell-based; settings: effector cells pre-incubated 24 hours with AS101; high concentrations less effective than moderate
H5N1 virus = type: cell-based
[2] = system: mouse cytomegalovirus (MCMV); settings: Sredni et al., Immunol Lett 1994; cited from earlier work
primary NK cells = type: cell-based; settings: 24 hours incubation, 0.1-5 μg/ml, supernatant ELISA
INFγ = type: in vivo, mice; settings: treated 24 hours before infection, six days after infection
[3] = system: human immunodeficiency virus type 1 (HIV-1); settings: Vonsover et al., AIDS Res Hum Retroviruses 1992; cited from earlier work
H5N1 influenza virus = system: H5N1 influenza virus; set-up: species or system BALB/c mice; settings: mouse, in vivo
[4] = system: H1N1 (swine) influenza virus; type: cell-based, swine influenza H1N1v virus
YTS cells = type: cell-based

Compound: CCOC(=O)C1=C[C@@H](OC(CC)CC)[C@H](NC(C)=O)[C@@H](N)C1 [oseltamivir, reference compound]
- H1N1 virus in infected mice (lung titer, real-time RT-PCR) (H1N1 influenza virus): Inhibition

Compound: Cl[TeH]1(Cl)(Cl)OCCO1 [AS101, ammonium trichloro(dioxyethylene-O,O′)tellurate]
- level of phosphorylated Akt, AS101 treatment alone [1]: increased
- level of phosphorylated Akt, cells infected with H5N1 virus ([1]; MDCK cells, 2 μg/ml, 10^2×TCID50 H5N1, 24 hours): dramatically reduced levels
- NK killing of target cells (721.221 target cells): increased NK killing
- H1N1 virus in infected mice (lung titer, real-time RT-PCR) (H1N1 influenza virus): significant inhibition
- H1N1 virus titers in the lungs, each tested administration time (H1N1 influenza virus): significantly reduced
- protection of cells from viral infection by supernatant of treated cells (H5N1 virus): can protect cells from viral infection
- effect against mouse cytomegalovirus (MCMV) [2]: inhibitory effect
- IFN-γ secretion by primary NK cells (primary NK cells): increased secretion
- interferon secretion in lungs of H5N1 infected mice (INFγ): restored interferon secretion to the levels observed in uninfected mice
- effect against human immunodeficiency virus type 1 (HIV-1) [3]: inhibitory effect
- toxicity to the cells (MTT) (MDCK cells): not toxic
- H5N1 virus in infected mice (lung titer, real-time RT-PCR) (H5N1 influenza virus): significant inhibition
- H5N1 virus titers in the lungs, each tested administration time (H5N1 influenza virus): significantly reduced
- body weight loss after infection (H5N1 influenza virus; ip): weight loss was reduced somewhat
- H1N1 virus infection, administered concomitantly with the virus [4]: strongest inhibition
- H1N1 virus infection, each tested administration time [4]: inhibition
- replication of H1N1 influenza virus (viral titer by ELISA) [4]: significant inhibition
- AS101 concentration at which the effect on IFN-γ secretion decreased (YTS cells): above 1 μg/ml
- IFN-γ secretion by YTS cells (YTS cells): increased secretion
